According to article PMC9905339 (Biochemistry, 2023):

Legend:
[1] = target: Rv0099 (Mycobacterium tuberculosis, UniProt P9WQ55)
[2] = target: MmaE (Mycobacterium marinum, UniProt B2HKM3); test: LC-HRMS of Py-AP after tetrazine click; assay type: biochemical; conditions: α-KG, Fe(II), 50 mM HEPES pH 8.0, room temperature
[3] = target: MmaA (Mycobacterium marinum, UniProt B2HKL9)
MmaA, sequence (B2HKL9 whole entry): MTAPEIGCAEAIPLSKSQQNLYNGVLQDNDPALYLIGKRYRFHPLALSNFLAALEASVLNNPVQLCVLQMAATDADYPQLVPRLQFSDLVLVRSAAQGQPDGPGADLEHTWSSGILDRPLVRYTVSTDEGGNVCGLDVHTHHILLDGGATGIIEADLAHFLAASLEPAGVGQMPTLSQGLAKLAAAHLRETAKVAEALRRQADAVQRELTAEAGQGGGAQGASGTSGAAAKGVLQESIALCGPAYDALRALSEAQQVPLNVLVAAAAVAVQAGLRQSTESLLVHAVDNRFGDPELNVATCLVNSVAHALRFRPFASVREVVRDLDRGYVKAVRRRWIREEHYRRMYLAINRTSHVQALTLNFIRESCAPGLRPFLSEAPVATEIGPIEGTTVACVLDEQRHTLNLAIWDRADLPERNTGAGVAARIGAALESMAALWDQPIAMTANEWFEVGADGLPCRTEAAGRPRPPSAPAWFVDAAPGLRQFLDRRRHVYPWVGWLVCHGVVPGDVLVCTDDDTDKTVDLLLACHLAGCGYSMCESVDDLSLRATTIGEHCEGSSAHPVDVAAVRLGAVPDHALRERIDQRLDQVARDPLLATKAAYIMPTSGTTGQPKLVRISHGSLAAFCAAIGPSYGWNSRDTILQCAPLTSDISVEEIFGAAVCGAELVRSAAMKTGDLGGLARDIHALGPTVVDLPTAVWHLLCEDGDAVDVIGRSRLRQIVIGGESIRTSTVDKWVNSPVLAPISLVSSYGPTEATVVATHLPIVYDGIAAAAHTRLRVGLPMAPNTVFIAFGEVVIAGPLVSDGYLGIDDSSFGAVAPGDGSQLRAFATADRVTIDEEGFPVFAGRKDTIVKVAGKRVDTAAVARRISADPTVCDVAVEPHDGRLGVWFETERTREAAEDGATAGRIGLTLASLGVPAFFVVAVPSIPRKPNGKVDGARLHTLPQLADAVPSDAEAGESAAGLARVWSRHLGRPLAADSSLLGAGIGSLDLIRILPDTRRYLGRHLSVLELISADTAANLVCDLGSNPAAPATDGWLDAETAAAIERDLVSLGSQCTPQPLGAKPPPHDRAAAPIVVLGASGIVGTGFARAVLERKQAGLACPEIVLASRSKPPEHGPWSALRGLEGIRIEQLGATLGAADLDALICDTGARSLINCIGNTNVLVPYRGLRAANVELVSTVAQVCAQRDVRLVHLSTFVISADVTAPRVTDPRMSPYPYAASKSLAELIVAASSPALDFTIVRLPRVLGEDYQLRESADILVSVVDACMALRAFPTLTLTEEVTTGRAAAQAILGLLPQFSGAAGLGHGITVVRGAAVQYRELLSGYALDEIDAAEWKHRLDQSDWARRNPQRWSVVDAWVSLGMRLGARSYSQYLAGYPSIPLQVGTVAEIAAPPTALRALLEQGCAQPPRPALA

Rv0099, sequence (P9WQ55 whole entry): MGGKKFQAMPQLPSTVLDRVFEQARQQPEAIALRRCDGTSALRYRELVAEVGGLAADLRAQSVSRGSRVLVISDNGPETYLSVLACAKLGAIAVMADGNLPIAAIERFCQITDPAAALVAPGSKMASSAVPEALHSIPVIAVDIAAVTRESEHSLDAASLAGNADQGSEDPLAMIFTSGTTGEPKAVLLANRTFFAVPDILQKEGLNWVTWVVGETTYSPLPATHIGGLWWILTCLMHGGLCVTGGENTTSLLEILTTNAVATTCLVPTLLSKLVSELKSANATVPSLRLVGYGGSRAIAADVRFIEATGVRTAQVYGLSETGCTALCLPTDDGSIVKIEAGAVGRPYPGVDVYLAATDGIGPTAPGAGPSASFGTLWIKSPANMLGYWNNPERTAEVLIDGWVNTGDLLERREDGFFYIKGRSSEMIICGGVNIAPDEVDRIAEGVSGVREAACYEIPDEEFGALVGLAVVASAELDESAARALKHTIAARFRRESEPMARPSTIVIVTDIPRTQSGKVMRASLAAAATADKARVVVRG
MmaE, sequence (B2HKM3 whole entry): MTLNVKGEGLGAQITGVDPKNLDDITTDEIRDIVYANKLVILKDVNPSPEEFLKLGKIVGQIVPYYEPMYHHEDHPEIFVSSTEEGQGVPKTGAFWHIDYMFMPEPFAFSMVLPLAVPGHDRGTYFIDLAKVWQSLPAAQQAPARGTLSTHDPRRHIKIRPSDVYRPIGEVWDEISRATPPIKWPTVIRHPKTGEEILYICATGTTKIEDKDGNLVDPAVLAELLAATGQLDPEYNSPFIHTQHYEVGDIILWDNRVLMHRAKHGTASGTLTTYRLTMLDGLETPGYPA

SMILES	LC-HRMS intact protein and Ppant ejection; loading onto holo-Rv0100 [1]	also measured
CCCCCCCC=CC(=O)O [2-decenoic acid]	Rv0099-catalyzed reaction containing holo-Rv0100, 2-decenoic acid, and ATP	
CCCCCCCC(CC(=O)O)NCC(=O)O (stereo not shown) [CADA, 3-[(carboxymethyl)amino]decanoic acid]		LC-HRMS of Py-AP after tetrazine click; turnover [2]: INDA was only detected from the assay with MmaE
[C-]#[N+]C(CCCCCCC)CC(=O)O (stereo not shown) [INDA, 3-isocyanodecanoic acid]	INDA, ATP, Rv0099, and Rv0100 yielded the expected product, INDA-S-Rv0100	
NCCCC[C@H](N)C(=O)O [lysine]		LC-HRMS of INLP6; coupled assay with Rv0097/MmaE and Rv0098-0100 [3]: together with 2-decenoic acid, ATP, Gly, α-KG, Lys, and NADPH, generated INLP6
